According to patent US11672786B2, “Methods of treating diseases associated with repeat instability” (The Hospital for Sick Children, priority 2016, dated 2023):
Where “and” joins values, the source holds several entries; their conditions need not be identical. Identical values can stand only once.

Experiments:
HD fibroblasts (CAG)180 = assay: small-pool PCR across HD repeat tract, HD primary fibroblasts GM09197; type: cell-based, human; settings: 50 uM NA, 40 days
Method: (§1) The construction of the HT1080-(CAG)850 cell model was described previously (Sathasivam et al., 1997, Hum. Genet., 99:692-5). Briefly, HT1080 (ATCC) human fibrosarcoma cells were co-transfected with a plasmid (LC15-R) containing 800-850 (CTG)●(CAG) repeats (Nakatani et al., 2005, Nat. Chem. Biol., 1:39-43) and a plasmid encoding PhiC31 integrase. Transfection was performed with a Nucleofector (Lonza, Basel, Switzerland), and stably transfected clones were selected with puromycin. […] The HT1080-non-transcribing (CAG)850 cell model was established by transfecting a plasmid modified from pLC16 by inserting an additional SV40 polyadenylation signal downstream of the repeats (in addition to the original polyadenylation signals located upstream of the repeats), so that CAG/CTG repeats are floxed by transcription-terminator elements. The AttB-PhiC31 system has been widely used for single copy integration. […] The HT1080 model cells and an HD primary fibroblast cell line, GM09197 (Coriell Biorepository) with a large expanded allele of 180 CAG repeats and a non-expanded allele of 23 repeats (Sathasivam et al., 1997, Hum. Genet., 99:[…]), the HD primary fibroblast cell line, GM02191 (Coreill Biorepository) with an expanded allele of 43 CAG repeats and a non-expanded allele of 19 repeats, were cultured at 37° C. with 5% CO2 in Dulbecco's modified Eagle's medium supplemented with 10% fetal bovine serum and 1% penicillin/streptomycin. Cells were treated with or without continuous exposure to 50-μM NA for 30 days (HT1080 cells) or for 40 days (fibroblast cells). For experiments on non-proliferating cells, HT1080 cells were grown to confluence and then treated for the same period. WST-1 assay was performed according to the manufacturer's instructions (Roche, Basel, Switzerland). All cell lines were tested to be free of Mycoplasma. Three biological replicates were performed for each experiment.
(§2) Genomic DNA was extracted from HT1080-(CAG)850 clones and HD primary fibroblasts using the Gentra Puregene Cell Kit (Qiagen, Valencia, Calif.). The expanded (CTG)●(CAG) repeats were sized by small-pool PCR (sp-PCR) followed by Southern blot as described previously (Sathasivam et al., 1997, Hum. Genet., 99:692-5). For HT1080 models, small-pool PCR (spPCR) was performed with the input of 1.4-1.7 genome equivalents. The repeat size difference in the models is, at most, 3000 base-pairs, therefore, being strictly conservative, a bias toward amplifying the shorter allele can be possible, even under optimized PCR conditions described herein. For HD primary fibroblasts, sp-PCR & Southern blots were performed as described previously with slight modifications (Tome et al., 2013, PLoS Genet., 9:e1003280). Briefly, the PCR primers listed in Table 1 were used, and blots were hybridized with a DIG-labeled (CAG)7 locked nucleic acid probe (Nakamori et al. 2009, Neuromuscul. Disord., 19:759-62). At least 50 alleles were analyzed for each of the three experiments (more than 150 alleles for a total study). Repeat analyses are summarized in Table 2, compiled from complete small-pool-PCR datasets for each repetition of each experiment. For the histograms in FIGS. 4D, 4E, 10, 11, 5B, 5D, 5E, 14 and 15B, the Y-axis, “% of repeat population” was calculated by determining the proportion of >50 individual small-pool PCR reactions across the CAG repeat tract, that harbored a certain size of repeat product with a certain length. Cell clones were grown 30 or 40 days with or without NA (see, for example, Sathasivam et al., 1997, Hum. Genet., 99:692-5). Specifically, the histograms of repeat length distributions were from at least two different cell clones. Length distributions were determined as follows: Small-pool PCR followed by Southern blot for analysis of CAG/CTG repeat length.

HD fibroblasts (CAG)43 = assay: small-pool PCR across HD repeat tract, HD primary fibroblasts GM02191; type: cell-based, human; settings: 40 days; for % Contraction / % Expansion / % Unchanged / Average repeat size: 50 uM NA
Method: as §1, §2

HT1080-(CAG)850 cells = assay: cellular distribution by confocal microscopy; type: cell-based, human
Method: Scale bar represents 20 μm. […] The cell viability was estimated with WST-1 assays. Values represent the means of three independent measures±SD. […] Error bars indicate the SD of triplicate experiments. […] The dashed line indicates the peak CAG size. Allele lengths are grouped in bins spanning 10 repeats. More than 230 alleles were sized per group.
HT1080-(CAG)850 cells were incubated with 50-μM NBD-labeled NA for 48 hr and Cell Light Plasma Membrane-RFP, BacMam 2.0 (Life Technologies, Carlsbad, Calif.), then fixed for 15 min at RT with 4% paraformaldehyde and washed 2 times for 10 min in phosphate buffered saline (PBS). Cells were mounted with Vectashield hard-set mounting media that contains DAPI (Vector Laboratories, Burlingame, Calif.). Fluorescence images were obtained using Olympus FV1000D confocal laser scanning microscope (Olympus, Tokyo, Japan).

[1] = test system: transcription across the CAG transgene, R6/2 striatum; assay: qRT-PCR of CAG transgene transcription in R6/2 striatum; type: in vivo, mouse; settings: NA-treated vs. PBS-treated R6/2 striatum
Method: Strand specific RT-PCR (1 weeks). AttB-PhiC31 system have been widely used for single copy integration. Panel B of FIG. 16 was determined by quantitative real-time reverse transcriptase (qRT)-PCR and normalized to U6 RNA, expressed as the ratio of NA-treated vs. PBS-treated R6/2 striatum. Data are indicated as the mean±SD of triplicates.

(CAG)10 hairpins = settings: cited from earlier work
d(CAG)9 = d(CAG)9 immobilization 497 RU; cited from earlier work
r(CAG)9 = r(CAG)9 immobilization 524 RU; cited from earlier work
[2] = single experiments Ex 1-3, cut-off ±10 repeats

naphthyridine-azaquinolone
% Contraction (HD fibroblasts (CAG)180; Total): 31.2% | % Expansion (HD fibroblasts (CAG)180; Total): 13.6% | % Unchanged (HD fibroblasts (CAG)180; Total): 55.2% | Average repeat size (HD fibroblasts (CAG)180; Total): 177.5 number of repeats | % Unchanged (HD fibroblasts (CAG)180; single experiments Ex 1-3): 58.6% and 56.1% and 50.9% | Average repeat size (HD fibroblasts (CAG)180; single experiments Ex 1-3): 178.5 number of repeats and 176.5 number of repeats and 177.5 number of repeats | % Contraction (HD fibroblasts (CAG)180; [2]): 28.8% and 30.8% and 34.0% | % Expansion (HD fibroblasts (CAG)180; [2]): 12.6% and 13.1% and 15.1% | lowest repeat length reached by contractions (HD fibroblasts (CAG)43; 50 μM NA, HD disease threshold 35 units): ≥ 20 repeats | % Contraction (HD fibroblasts (CAG)43; Total): 25.3% | % Expansion (HD fibroblasts (CAG)43; Total): 4.9% | % Unchanged (HD fibroblasts (CAG)43; Total): 69.8% | Average repeat size (HD fibroblasts (CAG)43; Total): 40.7 number of repeats | % Unchanged (HD fibroblasts (CAG)43; single experiments Ex 1-3): 67.0% and 69.2% and 73.2% | Average repeat size (HD fibroblasts (CAG)43; single experiments Ex 1-3): 40.6 number of repeats and 40.4 number of repeats and 41.0 number of repeats | % Contraction (HD fibroblasts (CAG)43; [2]): 28.4% and 25.2% and 22.3% | % Expansion (HD fibroblasts (CAG)43; [2]): 4.6% and 5.6% and 4.5% | cell permeability (HT1080-(CAG)850 cells): cell-permeable and can enter the nuclei | effect on transcription across the CAG transgene [1]: does not affect transcription | melting temperature of (CAG)10 hairpins with NA ((CAG)10 hairpins; 50 μM NA, 47.1 (±0.7)° C. without NA): 78.8 (±0.1) ° C. | increase of the melting temperature of (CAG)10 hairpins ((CAG)10 hairpins): > 30 °C | changes in the SPR intensity on NA binding (d(CAG)9): 140 RU | changes in the SPR intensity on NA binding (r(CAG)9): 8 RU
